Data: ChEMBL document CHEMBL4261659, “Synthesis and biological evaluation of novel N-substituted nipecotic acid derivatives with a trans-alkene spacer as potent GABA uptake inhibitors” (Bioorg Med Chem, 2018)

Experiments:
GABA transporter 4 = target: T1, GABA transporter 4 (Mus musculus, UniProt P31650); assay: Inhibition of mouse GAT4 expressed in HEK293 cells assessed as reduction in [3H]GABA uptake preincubated for 25 mins followed by [3H]GABA addition and measured after 4 mins by liquid scintillation counting method; format: cell-based
T1 sequence (P31650 whole entry): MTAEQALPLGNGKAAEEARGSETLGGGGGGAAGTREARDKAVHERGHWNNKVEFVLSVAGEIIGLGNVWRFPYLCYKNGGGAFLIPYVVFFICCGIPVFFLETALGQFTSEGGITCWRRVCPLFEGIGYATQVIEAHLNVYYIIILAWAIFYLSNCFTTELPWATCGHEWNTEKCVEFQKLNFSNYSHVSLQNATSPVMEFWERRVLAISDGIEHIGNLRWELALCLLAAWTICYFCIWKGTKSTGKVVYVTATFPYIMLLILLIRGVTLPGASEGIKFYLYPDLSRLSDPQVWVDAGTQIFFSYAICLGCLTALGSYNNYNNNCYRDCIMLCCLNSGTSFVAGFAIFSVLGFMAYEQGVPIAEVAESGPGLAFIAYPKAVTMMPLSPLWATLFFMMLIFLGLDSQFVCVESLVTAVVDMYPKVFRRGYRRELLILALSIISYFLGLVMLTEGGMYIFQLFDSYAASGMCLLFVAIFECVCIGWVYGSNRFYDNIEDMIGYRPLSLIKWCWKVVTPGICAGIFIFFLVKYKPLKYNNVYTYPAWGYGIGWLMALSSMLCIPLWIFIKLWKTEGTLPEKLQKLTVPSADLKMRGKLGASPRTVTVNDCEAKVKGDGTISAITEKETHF

[1] = target: T2, Sodium- and chloride-dependent GABA transporter 1 (Mus musculus, UniProt P31648); assay: Displacement of NO711 from mouse GAT1 expressed in stable HEK293 cells preincubated for 10 mins followed by NO711 addition and measured after 40 mins by LC-ESI-MS/MS analysis; format: cell-based
[2] = target: T2, Sodium- and chloride-dependent GABA transporter 1; assay: Inhibition of mouse GAT1 expressed in HEK293 cells assessed as reduction in [3H]GABA uptake preincubated for 25 mins followed by [3H]GABA addition and measured after 4 mins by liquid scintillation counting method; format: cell-based
[3] = target: Sodium- and chloride-dependent GABA transporter 1 (Mus musculus) (UniProt P31648); assay: Inhibition of mouse GAT1 expressed in HEK293 cells assessed as remaining [3H]GABA uptake at 100 uM preincubated for 25 mins followed by [3H]GABA addition and measured after 4 mins by liquid scintillation counting method; format: cell-based
[4] = test system: Betaine/GABA transporter BGT1 (Mus musculus); assay: Inhibition of mouse GAT2 expressed in HEK293 cells assessed as remaining [3H]GABA uptake at 100 uM preincubated for 25 mins followed by [3H]GABA addition and measured after 4 mins by liquid scintillation counting method
[5] = target: T3, GABA transporter 4 (Mus musculus) (UniProt P31650); assay: Inhibition of mouse GAT4 expressed in HEK293 cells assessed as remaining [3H]GABA uptake at 100 uM preincubated for 25 mins followed by [3H]GABA addition and measured after 4 mins by liquid scintillation counting method; format: cell-based
T3 sequence (whole entry): T1 sequence (P31650 whole entry)

[6] = test system: GABA transporter 3 (Mus musculus); assay: Inhibition of mouse GAT3 expressed in HEK293 cells assessed as remaining [3H]GABA uptake at 100 uM preincubated for 25 mins followed by [3H]GABA addition and measured after 4 mins by liquid scintillation counting method
[7] = target: Sodium- and chloride-dependent GABA transporter 1 (Mus musculus) (UniProt P31648); assay: Displacement of NO711 from mouse GAT1 expressed in stable HEK293 cells assessed as remaining specific NO711 binding level preincubated at 100 uM for 10 mins followed by NO711 addition and measured after 40 mins by LC-ESI-MS/MS analysis; format: cell-based

SMILES	IC50 (GABA transporter 4) [µM]	Ki [1] [µM]	IC50 [2] [µM]	Activity [3] [%]	Activity [4] [%]	Activity [5] [%]	Activity [6] [%]	Activity [7] [%]
COc1ccc(C(/C=C/CN2CCC[C@H](C(=O)O)C2)(c2ccc(OC)cc2)c2ccc3sccc3c2)cc1	2.88	7.24	14.1					
COc1ccc(C(/C=C/CN2CCCC(C(=O)O)C2)(c2ccc(OC)cc2)c2nccs2)cc1 (racemic)		33.9		65	78	49	82	
Cc1ccc(C(/C=C/CN2CCCC(C(=O)O)C2)(c2ccc(C)cc2)c2ccc(C)cc2)cc1 (racemic)	10.7	5.5	20.4					
O=C(O)C1CCCN(C/C=C/C(c2ccccc2)(c2ccccc2)c2ccccc2)C1 (racemic)		8.32	40.7		108	89	103	
O=C(O)C1CCCN(C/C=C/C(c2ccc3occc3c2)(c2ccc3occc3c2)c2ccc3occc3c2)C1 (racemic)	5.89	2.14	4.07					
COc1ccc(C(/C=C/CN2CCCC(C(=O)O)C2)(c2ccc(OC)cc2)c2ccsc2)cc1 (racemic)	7.59	12.9	38.9		53			
COc1ccc(C(/C=C/CN2CCCC(C(=O)O)C2)(c2ccc(OC)cc2)c2ccc3sccc3c2)cc1 (racemic)	3.55	3.31	10.2					
COc1ccc(C(C/C=C/CN2CCCC(C(=O)O)C2)c2ccc(OC)cc2)cc1 (racemic)		3.24	13.5		96	84	71	
O=C(O)C1CCCN(C/C=C/C(c2ccc3sccc3c2)(c2ccc3sccc3c2)c2ccc3sccc3c2)C1 (racemic)	20			50				54
O=C(O)C1CCCN(C/C=C/CC(c2ccccc2)c2ccccc2)C1 (racemic)		0.0309	0.166		96	82	69	
COc1ccc(C(/C=C/CN2CCCC(C(=O)O)C2)(c2ccc(OC)cc2)c2ccc3c(c2)OCO3)cc1 (racemic)	3.16	8.71	28.2		53			
COc1ccc(C(O)(/C=C/CN2CCCC(C(=O)O)C2)c2ccc(OC)cc2)cc1 (racemic)	44.7		70.8		69		66	54
O=C(O)C1CCCN(C/C=C/CC(c2ccccc2)(c2ccccc2)c2ccccc2)C1 (racemic)	74.1	9.77	21.4		55		56	
COc1ccc(C(/C=C/CN2CCCC(C(=O)O)C2)(Cc2ccccc2)c2ccc(OC)cc2)cc1 (racemic)		4.68	15.8		92	69	66	
O=C(O)C1CCCN(C/C=C/C(c2ccc3c(c2)OCO3)(c2ccc3c(c2)OCO3)c2ccc3c(c2)OCO3)C1 (racemic)	15.1	6.31	17.8					
COc1ccc(C(C/C=C/CN2CCCC(C(=O)O)C2)(c2ccc(OC)cc2)c2ccc(OC)cc2)cc1 (racemic)	41.7	34.7	55		66			
COc1ccc(C(/C=C/CN2CCCC(C(=O)O)C2)(c2ccc(OC)cc2)c2nccn2C)cc1 (racemic)				70	72	83	83	62
COc1ccc(C(/C=C/CN2CCCC(C(=O)O)C2)c2ccc(OC)cc2)cc1 (racemic)	31.6	3.72	14.1		51			
COc1ccc(CC(/C=C/CN2CCCC(C(=O)O)C2)(c2ccc(OC)cc2)c2ccc(OC)cc2)cc1 (racemic)	66.1	3.09	11.2		60		53	
